Results: patent publication US8222483B2, “Cytokinin oxidase sequences and methods of use” (Pioneer Hi Bred International Inc, priority 2004, dated 2012)

Tested on: ZmCkx2
Assay: ZmCkx2 expression in leaf discs incubated with benzyladenine (Northern and Lynx analyses)
Type: cell-based, maize
Conditions: leaf discs incubated with 10 μM benzyladenine
Method: Northern analysis of ZmCkx2 was performed using ExpressHyb™ Hybridization Solution from BD Biosciences Clontech (Palo Alto, Calif.) with a final wash in 0.1×SSC, 0.1% SDS at 65° C. for 20 minutes.
A tight relationship exists between Lynx and Northern data for ZmCkx2. This provided confidence when the Lynx database was mined for ZmCkx2 expression in various plant parts. […] Similarly, Northern data indicated strongest signals from ear leaf and midrib tissues; intermediate levels in tassel, husk leaves, young leaves, stalk, and pulvini; and lower levels in cob and ovary tissue. Little to no ZmCkx2 activity was detected by Northern analysis of roots or silks.

c1ccc(CNc2ncnc3nc[nH]c23)cc1 [benzyladenine]
increase in ZmCkx2 expression: 2 fold
